Laboratory results reported in patent publication US10793522B2, “Sulfonamides as inhibitors of the uptake of extracellular citrate” (Boehringer Ingelheim International GmbH, priority 2016, dated 2020).

Tests used:
hSLC13A5 [1] = target: T1, hSLC13A5 (Homo sapiens, UniProt Q86YT5); test: Recombinant hSLC13A5/14C-citrate uptake assay; type: cell-based; conditions: HEK293 Flp-In cells over-expressing hSLC13A5; WGA-PVT SPA beads; 14C-citrate approx. 2 μM; 4 h
Description: (5) Recombinant hSLC13A5/^14C-Citrate Uptake Assay
The human embryonic kidney 293 (HEK 293)-Flp-In cells (293Flp-In-hSLC13A5) over-expressing hSLC13A5 transporter were cloned: The originating plasmid pcDNA3.1-hSLC13A5 containing hSLC13A5 was synthesized at GeneArt. The cDNA for hSLC13A5 was taken from this plasmid by means of PCR amplification using primers with added HindIII (N-terminal) and XhoI (C-terminal) restriction sites and sub-cloned in frame into pcDNA5/FRT from Invitrogen using the respective restriction enzymes. HEK293 Flp-In cells from Invitrogen were stably co-transfected using the pcDNA/FRT-hSLC13A5 plasmid as well as the pOG44 plasmid.
HEK 293-Flp-In cells are used that stably over-express hSLC13A5 transporter which is responsible for the uptake of citrate into these cells.
The uptake of ^14C-citrate into the 293Flp-In-hSLC13A5 cells is monitored using the WGA-PVT SPA (wheat germ agglutinin-polyvinyltoluene scintillation proximity assay) beads that bind to the 293Flp-In cells due to their WGA-PVT surface. This assay format is based on the imported radioactive citrate brought into proximity with the SPA beads by virtue of the biological processes within the cells. The radioactive decay is converted into a light signal that can be measured using e.g. the TopCount plate reader.
(§1) Method: ^14C-Citrate Uptake Assay
Test Compound Dilutions (2Fold-Concentrated):
Starting from 10 mM stock solutions in 100% DMSO, compounds are diluted in pure DMSO using the appropriate dilution steps.
Prior to the uptake assay, 200 μL assay medium (lx HBSS (with Ca^2+ and Mg^2+, w/o Phenolred), contains 5.56 mM D(+)-Glucose)+19.44 mM D(+)-Glucose (final concentration of D(+)-Glucose is 25 mM))+4.8 μL compound solution (or pure DMSO for non-inhibited control wells) are mixed (final DMSO concentration in the assay: 1% (v/v)).
After preparing the 2fold-concentrated test compound dilutions, 50 μL are pipetted to each well of white OptiPlates-96 and incubated at 37° C. in an incubator.
^14C-Citrate Working Solution (Volumes Required Per 96-Well):
The 293Flp-In-hSLC13A5 cells are cultivated in cell culture medium (DMEM+10% fetal calf serum+100 μg/mL Hygromycin B). The medium of the confluent cultures is discarded and the cells are washed with DPBS (w/o Mg^2+ w/o Ca^2+). The cells are detached by the addition of 2.0 mL Accumax per 75 cm^2 culture flask for up to 3 minutes at 37° C. and resuspended in 10 mL assay medium. After cell counting, 50,000 cells/well are administered in a volume of 50 μL into the white OptiPlates-96 containing the respective test compound concentrations. Following a 20 min incubation at 37° C. in the cell culture incubator, 20 μL of ^14C-citrate working solution is added to each well (final volume per well: 120 μL; final ^14C-citrate concentration: approx. 2 μM/well).
After incubation for 4 h at 37° C. in a humid cell culture incubator and the addition of 30 μL of WGA-PVT SPA beads to each well (0.25 mg/well), the plates are sealed on the top using a transparent plastic foil. Incubate the plates for 1 h by room temperature and gentle shaking.
After incubation, the plate is placed into the TopCount NXT HTS and the signal is recorded.
The performance of the test compounds is calculated as follows:
Wells containing cells incubated with 1% DMSO only deliver values for the non-inhibited ^14C-citrate uptake into 293Flp-In-hSLC13A5 cells (100% CTL). Wells containing cells which have received 30 mM non-labelled potassium citrate solution in addition to the ^14C-citrate working solution deliver values for the background (0% CTL).
(§2) The IC50 values of the compounds are calculated in IDBS XLfit by sigmoidal dose-response (variable slope).

hSLC13A5 [2] = target: T1, hSLC13A5; test: HepG2/14C-citrate uptake assay; type: cell-based; design: HepG2 cells endogenously express hSLC13A5 transporter which is responsible for the uptake of citrate into these cells; endogenous in cells; host or cells: HepG2; conditions: HepG2 cells endogenously expressing hSLC13A5; Cytostar-T; 14C-citrate ~1.8 μM; incubation over night
Description: (4) HepG2/^14C-Citrate Uptake Assay
HepG2 cells endogenously expressing hSLC13A5 were obtained from the Wistar Institute (Knowles et al., Science 1980, 209, 497-499).
HepG2 cells endogenously express hSLC13A5 transporter which is responsible for the uptake of citrate into these cells. […] The uptake of ^14C-citrate into HepG2 cells is monitored using the Cytostar-T assay. This assay format is based on the imported radioactive citrate brought into proximity with the scintillant contained within the base of the plate by virtue of the biological processes within the cells. The radioactive decay is converted to a light signal based on the integration of the scintillation matrix into the assay plate.
as §1
Starting from 10 mM stock solutions in 100% DMSO, compounds are diluted in pure DMSO using the appropriate dilution steps. Prior to the uptake assay, 400 μL assay medium+4.8 μL compound solution (or pure DMSO for non-inhibited control wells) are mixed (final DMSO concentration in the assay: 1% (v/v)) ^14C-citrate working solution (volumes required per 96-well):
The HepG2 cells are cultivated in cell culture medium (EMEM+10% fetal calf serum+1×NEAA and 10 mM L-Glutamin) For the assay, the medium of the confluent cultures is discarded and the cells are washed with DPBS w/o Mg^2+ w/o Ca^2+. The cells are detached by the addition of 1.0 mL 2× Trypsin in DPBS w/o Mg^2+ w/o Ca^2+ with 7.5 mM EDTA per 75 cm^2 culture flask for up to 3 minutes at 37° C. and resuspended in 10 mL cell culture medium. Following cell counting, 100,000 cells/well are seeded in a volume of 200 μL into Cytostar-T Scintillating 96-well microplates. After overnight incubation in a humid cell culture incubator at 37° C., 5% CO2, the cell culture medium is carefully aspirated and the cells are incubated with 200 μL prewarmed (37° C.) assay medium (50% DMEM+50% Ham's F-12+15 mM HEPES (pH 7.4) (medium contains 15.5 m M D(+)-glucose) per well for at least 1 h prior to the experiment.
Immediately prior to uptake assay, the assay medium is carefully removed and 100 μL test compound dilution is added to each well (n=3).
Following a 20 min incubation at 37° C. in the cell culture incubator, 20 μL of ^14C-citrate working solution is added to each well (final volume per well: 120 μL; final ^14C-citrate concentration ˜1.8 μM/well)).
After incubation over night at 37° C. in the cell culture incubator, the plates are sealed on the top using a transparent plastic foil and on the bottom using a white plastic foil. Following the sealing, the plate is placed into the TopCount NXT HTS and the signal is recorded.
as §2

T1 sequence (Q86YT5 whole entry): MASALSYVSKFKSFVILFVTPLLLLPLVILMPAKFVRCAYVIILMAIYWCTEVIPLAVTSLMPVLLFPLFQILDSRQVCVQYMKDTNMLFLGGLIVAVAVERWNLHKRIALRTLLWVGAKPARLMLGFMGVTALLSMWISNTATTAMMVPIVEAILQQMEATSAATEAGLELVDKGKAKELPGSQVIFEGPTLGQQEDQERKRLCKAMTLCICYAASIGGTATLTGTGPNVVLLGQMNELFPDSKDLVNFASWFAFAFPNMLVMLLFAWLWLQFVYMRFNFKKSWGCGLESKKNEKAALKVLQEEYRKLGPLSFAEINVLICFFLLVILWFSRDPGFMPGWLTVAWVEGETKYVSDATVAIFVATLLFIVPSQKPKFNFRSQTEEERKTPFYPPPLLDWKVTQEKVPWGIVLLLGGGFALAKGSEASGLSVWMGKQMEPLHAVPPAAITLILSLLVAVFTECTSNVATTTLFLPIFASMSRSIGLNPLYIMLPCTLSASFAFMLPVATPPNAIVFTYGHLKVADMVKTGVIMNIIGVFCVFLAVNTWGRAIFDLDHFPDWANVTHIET

Compound	IC50 (hSLC13A5 [1])	IC50 (hSLC13A5 [2])
CCOc1cc(Cl)cc(S(=O)(=O)N2CCC(C(=O)NCc3ccc(Cl)cn3)CC2)c1 [(I-52)]	200 nM	51 nM
CCOc1cc(Cl)cc(S(=O)(=O)N2CCC(C(=O)NCc3ccccn3)CC2)c1 [(I-53)]	410 nM	110 nM
CCOc1cc(Cl)cc(S(=O)(=O)N2CCC(C(=O)NCc3ccc(C#N)cc3)CC2)c1 [(I-54)]	231 nM	62 nM
CCOc1cc(Cl)cc(S(=O)(=O)N2CCC(C(=O)NCc3ccc(F)cn3)CC2)c1 [(I-55)]	189 nM	56 nM

Continued, values first:

IC50 (hSLC13A5 [1])	IC50 (hSLC13A5 [2])	Compound
436 nM	292 nM	COc1cc(Cl)cc(S(=O)(=O)N2CCC(C(=O)NCc3ccc(F)cn3)CC2)c1 [(I-56)]
167 nM	48 nM	COc1cc(Cl)cc(S(=O)(=O)N2CCC(C(=O)NCc3ccc(F)cc3)CC2)c1 [(I-57)]
837 nM	168 nM	COc1ncccc1CNC(=O)C1CCN(S(=O)(=O)c2cc(C)cc(Br)c2)CC1 [(I-58)]
98 nM	27 nM	CCc1ccc(CNC(=O)C2CCN(S(=O)(=O)c3cc(C)cc(Br)c3)CC2)nc1 [(I-59)]
918 nM	422 nM	Cc1cc(Br)cc(S(=O)(=O)N2CCC(C(=O)NCc3cccnc3)CC2)c1 [(I-60)]
232 nM	99 nM	Cc1cc(Br)cc(S(=O)(=O)N2CCC(C(=O)NCc3ccc(F)cn3)CC2)c1 [(I-62)]
